Test results as given in publication PMC12210912, “Pharmacologic properties and inhibitory activity of 6-azasteroids against Mycobacterium leprae in vivo and in vitro” (Microbiology Spectrum, 2025).

Tests used:
[1] = in vivo pharmacokinetics in CD1 male mice; settings: for bioavailability: male, CD1, mouse, oral, 5 mg/kg, read-out: F (bioavailability); for Cmax / Tmax / half-life: mouse
Procedure: Experiments were performed by Pharmaron, Inc. The metabolism and pharmacokinetics of the 6-azasteroids were studied in CD1 male mice approximately 8 weeks old and 20–30 g. […] Each group contained three mice. Blood samples were collected in anticoagulant tubes containing potassium ethylenediaminetetraacetic acid.
Four quality control samples (1, 2, 50, and 800 ng/mL) for plasma were prepared independently of those used for the calibration curves. These quality control samples were prepared on the day of analysis in the same way as the calibration standards. An aliquot (33 µL) of each standard, quality control sample, and unknown sample (30 µL of plasma combined with 3 µL of blank solution) was added to 200 µL of acetonitrile containing an internal standard mixture for precipitating protein. […] The supernatant was diluted three times with water. Diluted supernatant (5 µL) was quantitatively analyzed by LC-MS/MS (API 4000 Triple Quad—AB Sciex, Canada; LC-30A HPLC—Shimadzu, Japan). Non-compartmental pharmacokinetic analysis was performed with Phoenix WinNonlin software (ver. 6.1, Certara, US) using composite data.

LXRα = target: T1, LXRα (Homo sapiens, UniProt Q13133); assay: LXRα radioligand binding inhibition; settings: [3H]T0901317 binding, recombinant protein; for % inhibition observed, LXRα: 10 µM; for inhibition at 10 µM: read-out: % inhibition observed, LXRα
T1 construct: Eurofins (assay provider); host or cells: E. coli
T1 sequence (Q13133 1-447): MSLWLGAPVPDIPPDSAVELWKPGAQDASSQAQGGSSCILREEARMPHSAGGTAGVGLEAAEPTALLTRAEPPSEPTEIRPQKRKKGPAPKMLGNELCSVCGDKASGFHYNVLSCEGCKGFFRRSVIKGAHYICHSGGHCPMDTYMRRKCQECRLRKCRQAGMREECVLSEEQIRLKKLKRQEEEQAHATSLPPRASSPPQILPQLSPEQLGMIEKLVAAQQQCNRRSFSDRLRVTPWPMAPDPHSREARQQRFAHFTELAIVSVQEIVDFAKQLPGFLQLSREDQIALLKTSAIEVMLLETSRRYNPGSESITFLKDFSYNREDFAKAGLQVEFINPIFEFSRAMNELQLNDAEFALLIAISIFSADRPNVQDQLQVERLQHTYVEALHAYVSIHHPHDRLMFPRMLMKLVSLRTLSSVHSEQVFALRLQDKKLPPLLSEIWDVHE
Procedure: Four nuclear receptors: glucocorticoid, androgen, LXRα, and LXRβ were assayed. Inhibition of agonist binding to each of the receptors was carried out following a standard protocol by Eurofins, Inc., USA. Compounds were tested at 10 µM. Compound binding was measured by scintillation counting and was calculated as a % inhibition of the binding of a radioactively labeled ligand specific for each target. Percent inhibition of control specific binding was expressed as
100−[(measured specific binding)/(control specific binding)∗100]
where measured specific binding is the amount of radioactive ligand binding obtained in the presence of test compounds.
(iii) LXRα (human) recombinant protein expressed in E. coli; agonist radioligand 20 nM [^3H] […] (iv) LXRβ (human) recombinant protein expressed in E. coli; agonist radioligand 20 nM [^3H]

M. leprae 3β-HSD [2] = assay: cholestenone production by M. leprae in axenic medium (TLC); format: cell-based; settings: Mycobacterium leprae, TLC densitometry, σ printed in brackets
M. leprae [3] = assay: M. leprae viability in axenic medium by radiorespirometry; format: cell-based, Mycobacterium leprae
M. leprae 3β-HSD [4] = assay: NAD+ reduction by M. leprae whole cell lysate; format: biochemical, Mycobacterium leprae; settings: M. leprae WCL with 200 µM cholesterol, vehicle DMSO mean 1.119
Procedure: M. leprae whole cell lysate (WCL) was obtained by bead-beating gamma-irradiated M. leprae Strain NHDP (BEI Resources, NR-19326) with 0.1 mm silica beads and FastPrep bead-beater (MP Biomedicals, USA). Homogenization was carried out in three cycles of agitation at 6.5 m/s for 45 s, with the sample being rested on ice for at least 2 min between cycles. The homogenates were centrifuged at 14,000 × g for 5 min to separate the spheres and WCL. The supernatant was recovered, and protein concentration determined using Pierce BCA protein assay (Thermo Fisher Scientific). NAD^+ (200 µM, MilliporeSigma, USA) reduction was measured as previously described using 50 µg (protein) of WCL protein, with the addition of 200 µM of cholesterol (MilliporeSigma) and in the presence or absence of compound 2 (40 and 100 µM) or compound 5 (100 µM) ([10]).

M. leprae [5] = assay: Shepard's mouse footpad model: bacilli count and molecular viability; format: in vivo, Mycobacterium leprae; settings: for M. leprae molecular viability, median (16S rRNA cDNA/DNA, RT-qPCR) / M. leprae molecular viability: Balb/c mice footpad; for M. leprae molecular viability, median (16S rRNA cDNA/DNA, RT-qPCR): 50 mg/kg daily alone, 1 month; for M. leprae molecular viability: 50 mg/kg daily in combination with sub-inhibitory rifampicin 1 mg/kg; for bacillary load in footpad, median: Balb/c mice, 50 mg/kg daily by gavage alone, 1 month (20 doses), vehicle median 8.110 × 10^4
Procedure: Animal experimentation was conducted under approval by the ILSL ethical committee ([…] 02/19). Balb/c female mice with 8-week-old were inoculated with 5 × 10^3 live M. leprae bacilli, strain Thai-53, in both hind footpads, as previously described for the Shepard's model ([25]). Eight groups were tested in the experiment: (i) M. leprae control group (n = 5) inoculated with M. leprae and no additional treatment; (ii) vehicle control group (n = 4) inoculated with M. leprae and treatment with vehicle of the drugs; (iii) regular rifampicin treatment, 10 mg/Kg dose; […] (v) compound 2 treatment (n = 4), 50 mg/kg dose; […] One month after inoculation, mice from the control group were euthanized and the hind footpad was collected to assess the establishment of the infection by bacillary enumeration. At that time point, vehicle or drug treatment was started for the remaining groups. All compounds were administrated by gavage, rifampicin was administered weekly, and the compounds were administered daily (excluding weekends) for 1 month (20 doses). Mice were euthanized 6 h after administration of the last dose, and blood was collected in heparin-coated tubes by cardiac puncture for blood enzyme evaluation and compound 5 measurement by LC/MS in the plasma. The infected hind footpads from each group of mice were excised, homogenized and bacilli enumerated in a 100 μL aliquot as previously described ([26]). The remaining homogenate was centrifuged at 12,000 × g for 15 min, the supernatant was discarded, and the pellet was suspended in 750 μL of RNA later solution (Thermo Fisher Scientific). The homogenized tissue pellet was incubated at 4°C for 16 h and stored at -80°C until determination of M. leprae viability was performed by RT-qPCR ([27], [28]). […] RNA and DNA extractions were performed as previously described ([10], [27]). RNA samples were treated with the Turbo DNA-free kit (Thermo Fisher Scientific), and 1,000 ng of DNAse-treated RNA was then used to synthesize the cDNA using the GoScript kit (Promega, USA).

HepG2 cells = settings: cited from earlier work
[6] = plasma, 5 mg/kg PO vs 1 mg/kg IV

Row | Structure (SMILES) | AUCinf ([1]; 1 mg/kg IV) | Clobs (observed clearance) ([1]; 1 mg/kg IV) | AUCinf ([1]; 5 mg/kg PO, plasma) | bioavailability [1, 6] | Cmax ([1]; 5 mg/kg PO, plasma) | Tmax ([1]; 5 mg/kg PO, plasma) | half-life ([1]; 5 mg/kg PO, plasma) | Cmax ([1]; plasma, 1 mg/kg IV) | Tmax ([1]; plasma, 1 mg/kg IV) | % inhibition observed, LXRα (LXRα) | inhibition at 10 µM (LXRα) | effect on M. leprae viability (radiorespirometry) (M. leprae [3]; 100 µM) | rate of NAD+ reduction, mean value (ratio absorbance T/absorbance T0) (M. leprae 3β-HSD [4]; 100 µM) | M. leprae molecular viability, median (16S rRNA cDNA/DNA, RT-qPCR) (M. leprae [5]) | M. leprae molecular viability (M. leprae [5]) | bacillary load in footpad, median (M. leprae [5]) | IC50 (HepG2 cells) | also measured
1 | C[C@]12CCC3C(CNC4=CC(=O)CC[C@@]43C)C1CCC2C(=O)NC(c1ccc(F)cc1)c1ccc(F)cc1 (some centres unmarked) [Compound 5] | 3,123 h·ng/g | 5.34 (mL/min)/kg | 18,566 h·ng/g | 119% | 2210 ng/mL | 30 min | 168 min | 838 ng/mL | 156 min | low binding | 11% | without significantly affecting bacterial viability | 0.9070 | 4.205% | a reduction in bacterial viability was also observed | 7.890 × 10^4 | 31 µM | F (bioavailability) ([1]; 5 mg/kg PO vs 1 mg/kg IV): 118.9%; compound remaining in plasma after 6 h ([1]; PO administration): more than 50%; in vivo t1/2 relative to compound 1 ([1]; longer than compound 1): approximately 2.5 fold; inhibition at 100 µM (M. leprae 3β-HSD [2]; 100 μM): ~25.1%
2 | CCCN1CC2C3CCC(C(=O)Nc4cc(C(C)(C)C)ccc4C(C)(C)C)[C@@]3(C)CCC2[C@@]2(C)CCC(=O)C=C12 (some centres unmarked) [Compound 2] | – | – | – | – | – | – | – | – | – | significantly inhibit binding | 64% | drastically reduced M. leprae viability | 1.038 | 0.5442% | a reduction in bacterial viability was also observed | 7.885 × 10^4 | 21 µM | inhibition at 40 µM (M. leprae 3β-HSD [2]; 40 μM): ~38%; effect on M. leprae viability (radiorespirometry) (M. leprae [3]; 40 µM): did not significantly affect M. leprae viability; rate of NAD+ reduction, mean value (ratio absorbance T/absorbance T0) (M. leprae 3β-HSD [4]; 40 µM): 0.9986
3 | CC(C)(C)c1ccc(C(C)(C)C)c(NC(=O)C2CCC3C4CNC5=CC(=O)CC[C@]5(C)C4CC[C@]23C)c1 (some centres unmarked) [Compound 1] | 356 ng·h/g | 46.8 (mL/min)/kg | 822.1 ng·h/g | 46.2% | 501 ng/mL | 30 min | 60 min | 803 ng/mL | 38.5 min | significantly inhibit binding | 53% | – | – | – | – | – | – | time by which most of the compound was cleared from plasma ([1]; PO administration): ≤ 4 h
